Data from patent publication US11926600B2, “Sulfonylureas and sulfonylthioureas as NLRP3 inhibitors” (Inflazome Limited, priority 2017, dated 2024).

Legend:
NLRP3 [1] = target: T1, NLRP3 (Homo sapiens, UniProt Q96P20); experiment: THP-1 cells pyroptosis assay; type: cell-based; design: Seed THP-1 cells (25,000 cells/well) containing 1.0 μg/ml LPS; host or cells: THP-1 cells, LPS-primed, nigericin-stimulated; settings: LPS 1 μg/ml, nigericin 5 μM, resazurin readout
Experimental: THP-1 Cells: Culture and Preparation
The cells were routinely passaged and grown to confluency (˜10^6 cells/ml). On the day of the experiment, THP-1 cells were harvested and resuspended into RPMI medium (without FBS). The cells were then counted and viability (>90%) checked by Trypan blue (Sigma #T8154). […] To this diluted cell solution was added LPS (Sigma #L4524) to give a 1 μg/ml Final Assay Concentration (FAC). 40 μl of the final preparation was aliquoted into each well of a 96-well plate. The plate thus prepared was used for compound screening.
THP-1 Cells Pyroptosis Assay
The following method step-by-step assay was followed for compound screening. • 1. […] Incubate for 3 hrs at 37° C. in 5% CO2 • 4. Add 5 μl nigericin (Sigma #N7143) (FAC 5 μM) to all wells • 5. Incubate for 1 hr at 37° C. and 5% CO2 • 6. At the end of the incubation period, spin plates at 300×g for 3 mins and remove supernatant • 7. Then add 50 μl of resazurin (Sigma #R7017) (FAC 100 μM resazurin in RPMI medium without FBS) and incubate plates for a further 1-2 hrs at 37° C. and 5% CO2 • 8. […] IC50 data is fitted to a non-linear regression equation (log inhibitor vs response-variable slope 4-parameters)

NLRP3 [2] = target: T1, NLRP3; experiment: Human whole blood IL1β release assay; type: cell-based; design: Plate out 80 μl of whole blood containing 1 μg/ml of LPS; from tissue; host or cells: human whole blood from healthy donors, LPS-primed, nigericin-stimulated; settings: LPS 1 μg/ml, nigericin 10 μM, IL-1β AlphaLisa, read-out: HWB IC50
Experimental: Human Whole Blood IL1β Release Assay
For systemic delivery, the ability to inhibit NLRP3 when the compounds are present within the bloodstream is of great importance. For this reason, the NLRP3 inhibitory activity of a number of compounds in human whole blood was investigated in accordance with the following protocol.
Human whole blood in Li-heparin tubes was obtained from healthy donors from a volunteer donor panel. • 1. Plate out 80 μl of whole blood containing 1 μg/ml of LPS in 96-well, clear bottom cell culture plate (Corning #3585) • 2. Add 10 μl compound (8 points half-log dilution with 10 μM top dose) or vehicle (DMSO 0.1% FAC) to the appropriate wells • 3. Incubate for 3 hrs at 37° C. 5% CO2 • 4. Add 10 μl Nigericin (Sigma #N7143) (10 μM FAC) to all wells • 5. Incubate for 1 hr at 37° C. 5% CO2 • 6. At the end of the incubation period, spin plates at 300×g for 5 mins to pellet cells and remove 20 μl of supernatant and add to 96-well v-bottom plates for IL-1β analysis (note: these plates containing the supernatants can be stored at −80° C. to be analysed at a later date) • 7. IL-1β was measured according to the manufacturer protocol (Perkin Elmer-AlphaLisa IL-1 Kit AL220F-5000) • 8. IC50 data is fitted to a non-linear regression equation (log inhibitor vs response-variable slope 4-parameters)

T1 sequence (Q96P20 whole entry): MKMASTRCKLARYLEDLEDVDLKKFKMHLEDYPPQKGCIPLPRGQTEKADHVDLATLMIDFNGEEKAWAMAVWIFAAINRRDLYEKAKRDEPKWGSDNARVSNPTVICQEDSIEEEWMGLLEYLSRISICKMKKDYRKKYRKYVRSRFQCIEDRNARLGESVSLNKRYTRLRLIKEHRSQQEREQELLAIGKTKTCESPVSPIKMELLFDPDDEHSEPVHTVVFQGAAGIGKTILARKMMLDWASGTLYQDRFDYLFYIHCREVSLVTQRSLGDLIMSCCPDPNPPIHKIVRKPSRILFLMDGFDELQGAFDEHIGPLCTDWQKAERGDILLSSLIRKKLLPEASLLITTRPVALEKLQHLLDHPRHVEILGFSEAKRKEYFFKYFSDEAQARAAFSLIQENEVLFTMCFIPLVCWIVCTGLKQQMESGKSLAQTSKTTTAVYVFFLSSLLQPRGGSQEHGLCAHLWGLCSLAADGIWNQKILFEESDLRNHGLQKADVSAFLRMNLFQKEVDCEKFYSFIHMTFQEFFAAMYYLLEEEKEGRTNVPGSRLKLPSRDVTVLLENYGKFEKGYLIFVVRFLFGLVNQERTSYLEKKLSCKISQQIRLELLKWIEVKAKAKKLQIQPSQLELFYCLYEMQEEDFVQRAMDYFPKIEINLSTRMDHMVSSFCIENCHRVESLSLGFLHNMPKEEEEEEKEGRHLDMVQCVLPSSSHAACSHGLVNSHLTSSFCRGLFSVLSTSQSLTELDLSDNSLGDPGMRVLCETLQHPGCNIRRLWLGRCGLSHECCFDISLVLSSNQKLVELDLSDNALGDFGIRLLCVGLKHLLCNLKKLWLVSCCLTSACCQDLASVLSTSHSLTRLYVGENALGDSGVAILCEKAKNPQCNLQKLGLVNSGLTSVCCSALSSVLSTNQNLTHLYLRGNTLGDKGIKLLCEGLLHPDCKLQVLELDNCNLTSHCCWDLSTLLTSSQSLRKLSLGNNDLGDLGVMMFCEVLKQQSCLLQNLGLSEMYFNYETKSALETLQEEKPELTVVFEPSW

SMILES | IC50 (NLRP3 [1]) | IC50 (NLRP3 [2])
CC(C)c1cc(F)cc(-c2ccnc(C#N)c2)c1NC(=O)NS(=O)(=O)c1cn(C(C)C)cn1 [Example 4, N-((2-(2-Cyanopyridin-4-yl)-4-fluoro-6-isopropylphenyl)carbamoyl)-1-isopropyl-1H-imidazole-4-sulfonamide] | 160 to 640 nM | 400 to 800 nM
CC(C)c1cc(F)cc(-c2cnn(C)c2)c1NC(=O)NS(=O)(=O)c1cn(C(C)C)cn1 [Example 10, N-((4-Fluoro-2-isopropyl-6-(i-methyl-1H-pyrazol-4-yl)phenyl)carbamoyl)-1-isopropyl-1H-imidazole-4-sulfonamide] | 2560 to 10000 nM | –
COc1cc(-c2ccc3c(c2NC(=O)NS(=O)(=O)c2cn(C(C)C)cn2)CCC3)ccn1 [Example 21] | 40 to 160 nM | 400 to 800 nM
CN(C)Cc1c(S(=O)(=O)NC(=O)Nc2c3c(cc4c2CCC4)CCC3)ncn1C [Example 19] | 160 to 640 nM | 800 to 1600 nM
COc1cc(-c2cc(F)cc(C(C)C)c2NC(=O)NS(=O)(=O)c2cn(C(C)C)cn2)ccn1 [Example 5, N-((4-Fluoro-2-isopropyl-6-(2-methoxypyridin-4-yl)phenyl)carbamoyl)-1-isopropyl-1H-imidazole-4-sulfonamide] | 40 to 160 nM | 800 to 1600 nM
C[C@H](O)Cn1cnc(S(=O)(=O)NC(=O)Nc2c3c(cc4c2CCC4)CCC3)c1 [Example 2, (S)—N-((1,2,3,5,6,7-Hexahydro-s-indacen-4-yl)carbamoyl)-1-(2-hydroxypropyl)-1H-imidazole-4-sulfonamide] | 160 to 640 nM | 800 to 1600 nM
Cc1nc(S(=O)(=O)NC(=O)Nc2c3c(cc4c2CCC4)CCC3)cn1CC1CCCO1 (stereo not drawn) [Example 16, N-((1,2,3,5,6,7-Hexahydro-s-indacen-4-yl)carbamoyl)-2-methyl-1-((tetrahydrofuran-2-yl)methyl)-1H-imidazole-4-sulfonamide] | 160 to 640 nM | 800 to 1600 nM
C[C@@H](O)Cn1cnc(S(=O)(=O)NC(=O)Nc2c3c(cc4c2CCC4)CCC3)c1 [Example 1, (R)—N-((1,2,3,5,6,7-Hexahydro-s-indacen-4-yl)carbamoyl)-1-(2-hydroxypropyl)-1H-imidazole-4-sulfonamide] | 160 to 640 nM | 800 to 1600 nM
CCn1cc(S(=O)(=O)NC(=O)Nc2c3c(cc4c2CCC4)CCC3)nc1C [Example 6, 1-Ethyl-N-((1,2,3,5,6,7-hexahydro-s-indacen-4-yl)carbamoyl)-2-methyl-1H-imidazole-4-sulfonamide] | 160 to 640 nM | 3200 to 10000 nM
CC(C)c1cccc(C(C)C)c1NC(=O)NS(=O)(=O)c1cn(C(C)C)cn1 [Example 14, N-((2,6-Diisopropylphenyl)carbamoyl)-1-isopropyl-1H-imidazole-4-sulfonamide] | 2560 to 10000 nM | –
Cn1ccnc1S(=O)(=O)NC(=O)Nc1c2c(cc3c1CCC3)CCC2 [Example 9, N-((1,2,3,5,6,7-Hexahydro-s-indacen-4-yl)carbamoyl)-1-methyl-1H-imidazole-2-sulfonamide] | 2560 to 10000 nM | –
Cc1nc(S(=O)(=O)NC(=O)Nc2c3c(cc4c2CCC4)CCC3)cn1CCO [Example 17, N-((1,2,3,5,6,7-Hexahydro-s-indacen-4-yl)carbamoyl)-1-(2-hydroxyethyl)-2-methyl-1H-imidazole-4-sulfonamide] | 640 to 2560 nM | 800 to 1600 nM
CN(C)CCn1cnc(S(=O)(=O)NC(=O)Nc2c3c(cc4c2CCC4)CCC3)c1 [Example 3, 1-(2-(Dimethylamino)ethyl)-N-((1,2,3,5,6,7-hexahydro-s-indacen-4-yl)carbamoyl)-1H-imidazole-4-sulfonamide] | 640 to 2560 nM | 1600 to 3200 nM
Cn1cnc(S(=O)(=O)NC(=O)Nc2c3c(cc4c2CCC4)CCC3)c1 [Example 12, N-((1,2,3,5,6,7-Hexahydro-s-indacen-4-yl)carbamoyl)-1-methyl-1H-imidazole-4-sulfonamide] | 640 to 2560 nM | –
CC(C)c1ncc(S(=O)(=O)NC(=O)Nc2c3c(cc4c2CCC4)CCC3)n1C [Example 8, N-((1,2,3,5,6,7-Hexahydro-s-indacen-4-yl)carbamoyl)-2-isopropyl-1-methyl-1H-imidazole-5-sulfonamide] | 160 to 640 nM | –
CC(C)n1cnc(S(=O)(=O)NC(=O)Nc2c(-c3ccnc(C#N)c3)ccc3c2CCC3)c1 [Example 20] | < 40 nM | < 400 nM
CC(C)n1cnc(S(=O)(=O)NC(=O)Nc2c3c(cc4c2CCC4)CCC3)c1 [Example 15, N-((1,2,3,5,6,7-Hexahydro-s-indacen-4-yl)carbamoyl)-1-isopropyl-1H-imidazole-4-sulfonamide] | 160 to 640 nM | 1600 to 3200 nM
Cc1nc(S(=O)(=O)NC(=O)Nc2c3c(cc4c2CCC4)CCC3)cn1C(C)C [Example 7, N-((1,2,3,5,6,7-Hexahydro-s-indacen-4-yl)carbamoyl)-1-isopropyl-2-methyl-1H-imidazole-4-sulfonamide] | 160 to 640 nM | 1600 to 3200 nM
CC(C)c1nc(S(=O)(=O)NC(=O)Nc2c3c(cc4c2CCC4)CCC3)cn1C [Example 13, N-((1,2,3,5,6,7-Hexahydro-s-indacen-4-yl)carbamoyl)-2-isopropyl-1-methyl-1H-imidazole-4-sulfonamide] | 640 to 2560 nM | 3200 to 10000 nM
